Test results: patent US11952364B2, “TRK inhibitors useful as anticancer drugs” (TYLIGAND BIOSCIENCE (SHANGHAI) LIMITED, priority 2018, dated 2024)
Each block holds one molecule with its values, some of them ahead of it.

How the values were obtained:
[1] = system: TRK Fusion-Positive Cancers; conditions: cited from earlier work
FLT3(ITD) = assay: KINOMEscan competition binding assay; set-up: species or system human; conditions: 2 μM
Experimental: (§1) The experiment was performed according to the standard kinase activity determination protocol by Eurofins DiscoverX Corporation (11180 Roselle St. Suite D, San Diego, CA, USA, www.discoverX.com). Specifically, the experiment was conducted using the KINOMEscan™ screening platform, which adopts an active site-directed competition binding assay to quantitatively measure the interaction between test compounds and more than hundreds of human kinases and disease-related mutants. The working principle of the screening platform and kinase assay methods are well known in the art, for example, see www.discoverX.com.

[2] = target: kinases listed in Table 10; assay: KINOMEscan kinase panel (kinase profile); format: binding, human
Experimental: as §1
The experiment was performed according to the standard kinase activity determination protocol by Eurofins DiscoverX Corporation (11180 Roselle St. Suite D, San Diego, CA USA, www.discoverX.com).

PLK4 = PLK4 (Homo sapiens (Human), UniProt O00444); assay: KINOMEscan competition binding assay
Experimental: as §1

CDKL2 = CDKL2 (Homo sapiens (Human), UniProt Q92772); assay: KINOMEscan competition binding assay
Experimental: as §1

MET = MET (Homo sapiens (Human), UniProt P08581); assay: KINOMEscan competition binding assay
Experimental: as §1

MERTK = MERTK (Homo sapiens (Human), UniProt Q12866); assay: KINOMEscan competition binding assay
Experimental: as §1

FLT3(K663Q) = FLT3(K663Q) (Homo sapiens (Human), UniProt P36888, K663Q); assay: KINOMEscan competition binding assay
Experimental: as §1

MET(M1250T) = MET(M1250T) (Homo sapiens (Human), UniProt P08581, M1250T); assay: KINOMEscan competition binding assay
Experimental: as §1

FLT3(N841I) = FLT3(N841I) (Homo sapiens (Human), UniProt P36888, N841I); assay: KINOMEscan competition binding assay
Experimental: as §1

BLK = BLK (Homo sapiens (Human), UniProt P51451); assay: KINOMEscan competition binding assay
Experimental: as §1

TRKB = TRKB (Homo sapiens (Human), UniProt Q16620); assay: KINOMEscan competition binding assay
Experimental: as §1

MKNK1 = MKNK1 (Homo sapiens (Human), UniProt Q9BUB5); assay: KINOMEscan competition binding assay
Experimental: as §1

TRKC = TRKC (Homo sapiens (Human), UniProt Q16288); assay: KINOMEscan competition binding assay
Experimental: as §1

FLT3(D835V) = FLT3(D835V) (Homo sapiens (Human), UniProt P36888, D835V); assay: KINOMEscan competition binding assay
Experimental: as §1

DDR1 = DDR1 (Homo sapiens (Human), UniProt Q08345); assay: KINOMEscan competition binding assay
Experimental: as §1

KIT(V559D) = KIT(V559D) (Homo sapiens (Human), UniProt P10721, V559D); assay: KINOMEscan competition binding assay
Experimental: as §1

KIT(V559D, T670I) = KIT(V559D, T670I) (Homo sapiens (Human), UniProt P10721, T670I/V559D); assay: KINOMEscan competition binding assay
Experimental: as §1

NEK9 = NEK9 (Homo sapiens (Human), UniProt Q8TD19); assay: KINOMEscan competition binding assay
Experimental: as §1

CDK11 = CDK11 (Homo sapiens (Human), UniProt Q9BWU1); assay: KINOMEscan competition binding assay
Experimental: as §1

TIE1 = TIE1 (Homo sapiens (Human), UniProt P35590); assay: KINOMEscan competition binding assay
Experimental: as §1

DDR2 = DDR2 (Homo sapiens (Human), UniProt Q16832); assay: KINOMEscan competition binding assay
Experimental: as §1

RET(M918T) = RET(M918T) (Homo sapiens (Human), UniProt P07949, M918T); assay: KINOMEscan competition binding assay
Experimental: as §1

LCK = LCK (Homo sapiens (Human), UniProt P06239); assay: KINOMEscan competition binding assay
Experimental: as §1

TIE2 = TIE2 (Homo sapiens (Human), UniProt Q02763); assay: KINOMEscan competition binding assay
Experimental: as §1

CDK7 = CDK7 (Homo sapiens (Human), UniProt P50613); assay: KINOMEscan competition binding assay
Experimental: as §1

IKK-beta = IKK-beta (Homo sapiens (Human), UniProt O14920); assay: KINOMEscan competition binding assay
Experimental: as §1

EPHB6 = EPHB6 (Homo sapiens (Human), UniProt O15197); assay: KINOMEscan competition binding assay
Experimental: as §1

PDGFRB = PDGFRB (Homo sapiens (Human), UniProt P09619); assay: KINOMEscan competition binding assay
Experimental: as §1

RET = RET (Homo sapiens (Human), UniProt P07949); assay: KINOMEscan competition binding assay
Experimental: as §1

AXL = AXL (Homo sapiens (Human), UniProt P30530); assay: KINOMEscan competition binding assay
Experimental: as §1

LOK = LOK (Homo sapiens (Human), UniProt O94804); assay: KINOMEscan competition binding assay
Experimental: as §1

P450 3A4 = P450 3A4 (Homo sapiens (Human), UniProt P08684); assay: Cytochrome P450 inhibition in human liver microsomes; format: in vitro ADME
Experimental: The test compounds were evaluated by detecting the metabolism of human liver microsomes for the substrates of different subtypes of Cyp450. The liver microsomes (Sekisui XenoTech, LLC., human liver microsomes, cat. #H0610) were slowly melted on ice, and 0.482 mL of the liver microsome solution (20 mg/mL) was added to 30 mL of 100 mM potassium phosphate solution to prepare a liver microsome working solution with a concentration of 0.316 mg/mL. The test compound and specific inhibitors of different Cyp450 subtypes (as a control) were prepared into 10 mM DMSO solutions, and then 20 μL of the 10 mM DMSO compound solution was added to 180 μL of acetonitrile to obtain a 1 mM compound solution. 2 μL of such 1 mM test compound or inhibitor solution was added to 150 μL of 0.316 mg/mL liver microsome working solution to obtain a 13.16 μM compound working solution. 45.3 mg of NADPH (SIGMA, cat. #V900362) was weighted and added into 13.59 mL of deionized water to prepare a 4 mM NADPH aqueous solution. 0.2 mL of 2 mg/mL internal standard stock solution (dexamethasone in acetonitrile) was added to 1000 mL of acetonitrile (SIGMA, cat. #271004) to prepare a reaction stop solution and stored at 4° C. […] The single point IC50 values were calculated according to the following formula. […]

Sequence of KIT(V559D, T670I) (P10721 26-976 V559D/T670I): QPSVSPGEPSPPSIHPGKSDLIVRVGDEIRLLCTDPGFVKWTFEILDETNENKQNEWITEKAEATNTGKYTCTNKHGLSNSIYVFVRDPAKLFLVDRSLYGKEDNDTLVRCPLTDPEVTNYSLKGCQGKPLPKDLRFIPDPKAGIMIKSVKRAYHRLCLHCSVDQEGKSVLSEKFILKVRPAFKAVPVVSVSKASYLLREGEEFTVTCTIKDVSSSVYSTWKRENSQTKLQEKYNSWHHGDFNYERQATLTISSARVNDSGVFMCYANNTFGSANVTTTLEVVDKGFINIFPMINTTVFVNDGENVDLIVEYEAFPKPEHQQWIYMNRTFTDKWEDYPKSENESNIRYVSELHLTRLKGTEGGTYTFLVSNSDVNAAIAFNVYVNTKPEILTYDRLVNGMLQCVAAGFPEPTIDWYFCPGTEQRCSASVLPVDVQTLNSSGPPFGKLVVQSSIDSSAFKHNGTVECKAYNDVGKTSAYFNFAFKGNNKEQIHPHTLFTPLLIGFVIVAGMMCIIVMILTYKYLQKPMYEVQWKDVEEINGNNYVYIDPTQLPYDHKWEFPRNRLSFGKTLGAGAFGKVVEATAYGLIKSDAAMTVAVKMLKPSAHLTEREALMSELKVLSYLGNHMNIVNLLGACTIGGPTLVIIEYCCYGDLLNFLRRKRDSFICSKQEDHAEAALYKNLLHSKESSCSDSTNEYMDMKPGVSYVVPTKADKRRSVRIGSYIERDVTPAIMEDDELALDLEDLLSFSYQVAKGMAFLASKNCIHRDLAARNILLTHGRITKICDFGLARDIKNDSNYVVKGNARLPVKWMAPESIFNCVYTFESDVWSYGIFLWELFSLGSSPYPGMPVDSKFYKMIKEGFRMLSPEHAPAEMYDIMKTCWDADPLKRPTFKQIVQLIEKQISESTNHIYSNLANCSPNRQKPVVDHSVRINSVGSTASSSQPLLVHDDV
Sequence of TRKB (Q16620 32-822): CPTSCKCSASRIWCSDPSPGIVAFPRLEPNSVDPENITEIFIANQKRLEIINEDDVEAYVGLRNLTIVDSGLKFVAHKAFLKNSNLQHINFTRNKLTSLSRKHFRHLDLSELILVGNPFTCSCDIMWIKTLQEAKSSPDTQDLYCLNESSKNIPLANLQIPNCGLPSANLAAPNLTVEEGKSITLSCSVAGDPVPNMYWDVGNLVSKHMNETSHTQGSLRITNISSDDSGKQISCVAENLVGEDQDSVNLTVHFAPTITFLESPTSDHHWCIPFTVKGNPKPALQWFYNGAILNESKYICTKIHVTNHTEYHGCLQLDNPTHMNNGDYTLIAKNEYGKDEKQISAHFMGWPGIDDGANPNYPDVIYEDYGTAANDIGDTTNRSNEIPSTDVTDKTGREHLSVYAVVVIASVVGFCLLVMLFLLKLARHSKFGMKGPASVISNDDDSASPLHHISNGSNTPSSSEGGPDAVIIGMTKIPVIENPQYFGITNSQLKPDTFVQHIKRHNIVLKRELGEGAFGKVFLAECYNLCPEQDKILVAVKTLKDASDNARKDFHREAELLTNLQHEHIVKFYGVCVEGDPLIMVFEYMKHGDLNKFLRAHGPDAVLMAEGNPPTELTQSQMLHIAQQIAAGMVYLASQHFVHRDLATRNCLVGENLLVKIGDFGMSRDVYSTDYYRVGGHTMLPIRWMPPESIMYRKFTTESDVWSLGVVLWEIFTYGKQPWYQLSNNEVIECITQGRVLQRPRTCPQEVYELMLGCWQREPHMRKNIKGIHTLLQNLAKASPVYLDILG
Sequence of NEK9 (Q8TD19 whole entry): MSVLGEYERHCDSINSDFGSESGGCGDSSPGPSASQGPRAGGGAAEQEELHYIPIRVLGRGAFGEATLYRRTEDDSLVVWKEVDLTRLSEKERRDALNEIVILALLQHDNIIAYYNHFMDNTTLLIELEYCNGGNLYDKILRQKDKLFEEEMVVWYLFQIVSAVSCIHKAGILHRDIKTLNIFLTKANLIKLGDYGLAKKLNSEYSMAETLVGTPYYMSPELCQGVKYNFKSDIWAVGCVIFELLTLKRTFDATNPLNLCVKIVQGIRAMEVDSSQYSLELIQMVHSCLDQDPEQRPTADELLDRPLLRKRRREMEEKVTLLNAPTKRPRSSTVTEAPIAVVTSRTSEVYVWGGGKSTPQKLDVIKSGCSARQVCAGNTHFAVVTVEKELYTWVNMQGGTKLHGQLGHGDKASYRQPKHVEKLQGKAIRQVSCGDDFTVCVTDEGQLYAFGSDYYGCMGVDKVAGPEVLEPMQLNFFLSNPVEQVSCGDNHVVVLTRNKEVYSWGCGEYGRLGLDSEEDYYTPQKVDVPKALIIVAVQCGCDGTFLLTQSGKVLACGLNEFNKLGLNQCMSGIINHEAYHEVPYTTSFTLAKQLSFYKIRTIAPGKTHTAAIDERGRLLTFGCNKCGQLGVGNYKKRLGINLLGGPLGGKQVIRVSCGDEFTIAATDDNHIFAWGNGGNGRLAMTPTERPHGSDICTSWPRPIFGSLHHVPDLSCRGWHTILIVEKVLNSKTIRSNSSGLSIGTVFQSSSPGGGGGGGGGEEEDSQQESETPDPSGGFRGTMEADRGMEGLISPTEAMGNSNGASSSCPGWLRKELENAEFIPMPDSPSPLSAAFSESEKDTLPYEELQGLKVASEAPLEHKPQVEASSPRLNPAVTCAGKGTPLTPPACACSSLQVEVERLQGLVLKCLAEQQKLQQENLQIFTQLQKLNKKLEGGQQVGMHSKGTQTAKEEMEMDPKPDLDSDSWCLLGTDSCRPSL
Sequence of LOK (O94804 whole entry): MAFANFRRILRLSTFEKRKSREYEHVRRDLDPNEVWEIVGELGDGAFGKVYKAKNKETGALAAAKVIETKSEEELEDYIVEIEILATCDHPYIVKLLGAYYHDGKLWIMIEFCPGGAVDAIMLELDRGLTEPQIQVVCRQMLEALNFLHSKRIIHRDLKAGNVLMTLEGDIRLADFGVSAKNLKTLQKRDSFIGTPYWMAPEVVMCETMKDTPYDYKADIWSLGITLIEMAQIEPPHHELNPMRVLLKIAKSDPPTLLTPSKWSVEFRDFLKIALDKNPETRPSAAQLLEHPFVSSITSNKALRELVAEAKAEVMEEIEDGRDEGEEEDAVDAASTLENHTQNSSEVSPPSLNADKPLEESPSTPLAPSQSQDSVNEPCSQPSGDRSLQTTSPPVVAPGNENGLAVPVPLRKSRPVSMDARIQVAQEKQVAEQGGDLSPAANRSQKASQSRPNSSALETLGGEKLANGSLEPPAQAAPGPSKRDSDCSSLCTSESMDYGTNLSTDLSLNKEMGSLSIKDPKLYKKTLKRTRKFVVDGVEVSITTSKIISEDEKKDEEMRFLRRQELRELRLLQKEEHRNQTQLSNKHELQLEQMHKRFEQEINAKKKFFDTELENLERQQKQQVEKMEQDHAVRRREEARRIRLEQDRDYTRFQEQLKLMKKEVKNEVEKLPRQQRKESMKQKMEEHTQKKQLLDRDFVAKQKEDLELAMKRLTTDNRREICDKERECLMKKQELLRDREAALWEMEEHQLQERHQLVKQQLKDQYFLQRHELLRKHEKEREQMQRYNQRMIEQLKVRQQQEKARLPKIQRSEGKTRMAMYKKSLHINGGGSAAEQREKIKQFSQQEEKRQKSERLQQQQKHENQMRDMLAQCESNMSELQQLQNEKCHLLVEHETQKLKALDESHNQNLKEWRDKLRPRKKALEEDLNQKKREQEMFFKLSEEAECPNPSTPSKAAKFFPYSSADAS
Sequence of IKK-beta (O14920 whole entry): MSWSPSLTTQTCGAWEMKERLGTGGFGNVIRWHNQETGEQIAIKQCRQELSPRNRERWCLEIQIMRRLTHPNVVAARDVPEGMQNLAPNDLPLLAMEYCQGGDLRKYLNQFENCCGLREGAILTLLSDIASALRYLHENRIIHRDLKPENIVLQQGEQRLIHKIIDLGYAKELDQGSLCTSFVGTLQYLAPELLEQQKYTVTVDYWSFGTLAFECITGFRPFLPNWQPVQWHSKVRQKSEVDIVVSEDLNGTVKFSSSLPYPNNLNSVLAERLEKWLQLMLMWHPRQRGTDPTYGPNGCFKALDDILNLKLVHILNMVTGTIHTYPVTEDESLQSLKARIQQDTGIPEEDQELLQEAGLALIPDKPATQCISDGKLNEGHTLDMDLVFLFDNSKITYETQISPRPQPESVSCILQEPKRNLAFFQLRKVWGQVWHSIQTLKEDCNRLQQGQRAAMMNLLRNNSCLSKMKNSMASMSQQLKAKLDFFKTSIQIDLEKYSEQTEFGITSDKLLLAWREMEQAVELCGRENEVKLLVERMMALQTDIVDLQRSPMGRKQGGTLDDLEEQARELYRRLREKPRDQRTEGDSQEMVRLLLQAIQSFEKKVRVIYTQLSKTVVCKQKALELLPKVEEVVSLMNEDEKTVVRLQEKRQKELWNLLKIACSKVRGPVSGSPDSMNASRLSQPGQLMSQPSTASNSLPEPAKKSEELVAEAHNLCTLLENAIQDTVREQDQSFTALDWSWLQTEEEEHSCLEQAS
Sequence of MKNK1 (Q9BUB5 whole entry): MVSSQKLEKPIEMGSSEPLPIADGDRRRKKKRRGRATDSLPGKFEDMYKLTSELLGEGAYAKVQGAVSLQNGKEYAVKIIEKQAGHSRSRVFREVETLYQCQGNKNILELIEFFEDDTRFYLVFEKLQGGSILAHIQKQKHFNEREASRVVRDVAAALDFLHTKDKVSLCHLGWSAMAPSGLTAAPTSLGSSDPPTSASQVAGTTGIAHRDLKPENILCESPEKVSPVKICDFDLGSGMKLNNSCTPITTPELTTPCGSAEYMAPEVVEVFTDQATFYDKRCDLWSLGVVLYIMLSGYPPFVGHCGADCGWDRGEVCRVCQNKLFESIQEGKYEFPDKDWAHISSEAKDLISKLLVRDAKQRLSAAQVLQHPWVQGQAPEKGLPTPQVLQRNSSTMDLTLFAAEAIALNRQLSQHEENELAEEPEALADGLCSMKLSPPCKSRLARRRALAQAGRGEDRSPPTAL
Sequence of KIT(V559D) (P10721 26-976 V559D): as the sequence (P10721 26-976 V559D/T670I) above, with I645T counted along it

SMILES: O=C(Nc1cnn2ccc(N3CCC[C@@H]3c3cc(F)ccc3F)nc12)N1CC[C@H](O)C1 [LOXO-101, Larotrectinib, reference compound]
patients had no disease progression ([1]; after 1 year of treatment): 55%
patients still responded to treatment ([1]; after 1 year of treatment): 71%
overall patient response rate (ORR) ([1]; patients, more than ten tumor types): 75%
complete response ([1]; patients): 13%
partial response ([1]; patients): 62%

% inhibition (FLT3(ITD)): 98%
inhibitory activity on the kinases listed in Table 10 ([2]; concentration of 2 μM): > 90%
inhibition at 2 µM (PLK4): 90%
inhibition at 2 µM (CDKL2): 100%
inhibition at 2 µM (MET): 93%
inhibition at 2 µM (MERTK): 97%
inhibition at 2 µM (FLT3(K663Q)): 93%
inhibition at 2 µM (MET(M1250T)): 99%
inhibition at 2 µM (FLT3(N841I)): 100%
inhibition at 2 µM (BLK): 95%
inhibition at 2 µM (TRKB): 94%
inhibition at 2 µM (MKNK1): 95%
inhibition at 2 µM (TRKC): 97%
inhibition at 2 µM (FLT3(D835V)): 93%
inhibition at 2 µM (DDR1): 100%
inhibition at 2 µM (KIT(V559D)): 100%
inhibition at 2 µM (KIT(V559D, T670I)): 99%
inhibition at 2 µM (CDK11): 100%
inhibition at 2 µM (TIE1): 99%
inhibition at 2 µM (DDR2): 100%
inhibition at 2 µM (RET(M918T)): 95%
inhibition at 2 µM (LCK): 97%
inhibition at 2 µM (TIE2): 99%
inhibition at 2 µM (CDK7): 96%
inhibition at 2 µM (IKK-beta): 97%
inhibition at 2 µM (EPHB6): 95%
inhibition at 2 µM (PDGFRB): 98%
inhibition at 2 µM (RET): 97%
inhibition at 2 µM (AXL): 100%
inhibition at 2 µM (LOK): 100%
IC50 (P450 3A4): > 10 µM
SMILES: COc1ccc(C(=O)Nc2ccc(Oc3cc4cnn(C)c4cc3-c3cn[nH]c3)c(F)c2)c(=O)n1-c1ccc(F)cc1 [Example 12, N-(3-fluoro-4-(1-methyl-6-(1H-pyrazol-4-yl)-1H-indazol-5-yloxy)phenyl)-1-(4-fluorophenyl)-6-methoxy-2-oxo-1,2-dihydropyridine-3-carboxamide]
kinase activity profile compared with Merestinib ([2]; 2 μM, FIG. 2, kinases with a difference of inhibition rate >20%): significantly different trend in the kinase activity profile
inhibition at 2 µM (NEK9): 95%
